Test in all cases: relative viability (nuclei count vs DMSO), 5 days (fraction); higher = more cells survive
Compound in assay [1]: CCC1=CN=CN=C1N2CCN(CC2)CC3=NC4=C(N3)C=C(C=C4)C(F)(F)F + CC(C)C[C@H](NC(=O)[C@H](Cc1ccccc1)NC(=O)c1cnccn1)B(O)O [Bortezomib] (partner 0.002 µM)
Put shortly:
(§1)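 Lung cancer cell lines were pin-tool dosed in 1536-well plates on the day after seeding, with either a lone drug or a fixed anchor-drug dose plus five library-drug doses (not always all listed) in √10 steps. Nuclei were counted on 4× images after 5 days. Relative viability is the ratio of treated-well to vehicle-well nuclei counts, with each value a median of duplicate plates.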

Compound in assay [2]: CCC1=CN=CN=C1N2CCN(CC2)CC3=NC4=C(N3)C=C(C=C4)C(F)(F)F + C[C@]1(O)C[C@@H](c2nc(-c3ccc4ccc(-c5ccccc5)nc4c3)c3c(N)nccn32)C1 [Linsitinib] (partner 1 µM)
Summed up:
as §1

Compound in assay [3]: CCn1c(-c2nonc2N)nc2cnc(Oc3cccc(NC(=O)c4ccc(OCCN5CCOCC5)cc4)c3)cc21 + Nc1nc2[nH]cc(CCc3ccc(C(=O)N[C@@H](CCC(=O)O)C(=O)O)cc3)c2c(=O)[nH]1 [Pemetrexed] (partner 0.2 µM)
Summed up:
as §1

Compound in assay [4]: N=C1NC(=O)/C(=C/c2ccc(O)cc2)S1 [Mirin] + COc1cccc2cc(-c3nc([C@H]4CC[C@H](C(=O)O)CC4)n4ncnc(N)c34)[nH]c12 [OSI-027] (partner 0.5 µM)
Put shortly: as §1

Consider NCI-H2405, for which the relative viability in assay [1] (first compound 0.04 µM) stood at 0.892; in assay [1] (first compound 0.1265 µM), 0.703; in assay [1] (first compound 0.4 µM), 0.968; in assay [1] (first compound 4 µM), 1; in assay [2] (first compound 0.04 µM), 0.958; in assay [2] (first compound 0.1265 µM), 1.01. In addition, the relative viability was determined as 0.833 in assay [2] (first compound 0.4 µM); 1.02 in assay [2] (first compound 4 µM); 1.01 in assay [3] (first compound 0.04 µM); 0.395 in assay [3] (first compound 0.1265 µM); 0.315 in assay [3] (first compound 0.4 µM); 0.247 in assay [3] (first compound 1.265 µM). Also, the relative viability came to 0.284 in assay [3] (first compound 4 µM); 0.625 in assay [4] (first compound 0.25 µM); 0.612 in assay [4] (first compound 0.7906 µM); 0.585 in assay [4] (first compound 2.5 µM); 0.627 in assay [4] (first compound 7.906 µM); 0.508 in assay [4] (first compound 25 µM).

For NCI-H3122, the relative viability in assay [1] (first compound 0.04 µM) is 1.11; in assay [1] (first compound 0.1265 µM) it was 0.968; in assay [1] (first compound 0.4 µM), 1; in assay [1] (first compound 1.265 µM) it was 1.03; in assay [1] (first compound 4 µM), 1.05; in assay [2] (first compound 0.04 µM), 1.11. Besides, the relative viability in assay [2] (first compound 0.1265 µM) came out at 1.11; in assay [2] (first compound 0.4 µM), 1.01; in assay [2] (first compound 1.265 µM) it was 1.08; in assay [2] (first compound 4 µM), 0.93; in assay [3] (first compound 0.04 µM), 0.217; in assay [3] (first compound 0.1265 µM), 0.214. Also, the relative viability in assay [3] (first compound 0.4 µM) amounted to 0.183; in assay [3] (first compound 1.265 µM) it was 0.17; in assay [3] (first compound 4 µM) it was 0.202; in assay [4] (first compound 0.25 µM), 0.954; in assay [4] (first compound 0.7906 µM), 0.809; in assay [4] (first compound 2.5 µM), 0.921. Also, the relative viability is 0.887 in assay [4] (first compound 7.906 µM) and 0.902 in assay [4] (first compound 25 µM).

Consider PC-3 [JPC-3], for which the relative viability in assay [1] (first compound 0.04 µM) came to 0.838; in assay [1] (first compound 0.1265 µM), 0.765; in assay [1] (first compound 0.4 µM) it was 0.757; in assay [1] (first compound 1.265 µM), 0.807; in assay [1] (first compound 4 µM), 0.854; in assay [2] (first compound 0.04 µM) it was 0.972. Also, the relative viability in assay [2] (first compound 0.1265 µM) worked out at 0.882; in assay [2] (first compound 0.4 µM) it was 0.969; in assay [2] (first compound 1.265 µM), 0.906; in assay [2] (first compound 4 µM) it was 0.911; in assay [3] (first compound 0.04 µM), 1.14; in assay [3] (first compound 0.1265 µM) it was 1.03. The relative viability worked out at 1.05 in assay [3] (first compound 0.4 µM); 0.662 in assay [3] (first compound 1.265 µM); 0.928 in assay [3] (first compound 4 µM); 0.797 in assay [4] (first compound 0.25 µM); 0.739 in assay [4] (first compound 0.7906 µM); 0.774 in assay [4] (first compound 2.5 µM). The relative viability amounted to 0.669 in assay [4] (first compound 7.906 µM) and 0.753 in assay [4] (first compound 25 µM).

On to PC-14, for which the relative viability worked out at 0.938 in assay [1] (first compound 0.04 µM); 0.815 in assay [1] (first compound 0.1265 µM); 0.856 in assay [1] (first compound 0.4 µM); 0.848 in assay [1] (first compound 1.265 µM); 0.935 in assay [1] (first compound 4 µM); 0.918 in assay [2] (first compound 0.04 µM). The relative viability in assay [2] (first compound 0.1265 µM) stood at 0.896; in assay [2] (first compound 0.4 µM) it was 0.965; in assay [2] (first compound 1.265 µM), 0.931; in assay [2] (first compound 4 µM) it was 0.982; in assay [3] (first compound 0.04 µM) it was 0.136; in assay [3] (first compound 0.1265 µM), 0.149. Besides, the relative viability came to 0.131 in assay [3] (first compound 0.4 µM); 0.138 in assay [3] (first compound 1.265 µM); 0.177 in assay [3] (first compound 4 µM); 0.872 in assay [4] (first compound 0.25 µM); 0.742 in assay [4] (first compound 0.7906 µM); 0.792 in assay [4] (first compound 2.5 µM). Besides, the relative viability in assay [4] (first compound 25 µM) came out at 0.728.

Consider RERF-LC-KJ, for which the relative viability came out at 1.04 in assay [1] (first compound 0.04 µM); 1.01 in assay [1] (first compound 0.1265 µM); 1.11 in assay [1] (first compound 0.4 µM); 0.941 in assay [1] (first compound 1.265 µM); 1.11 in assay [1] (first compound 4 µM); 0.814 in assay [2] (first compound 0.04 µM). Moreover, the relative viability in assay [2] (first compound 0.1265 µM) came to 0.827; in assay [2] (first compound 0.4 µM) it was 0.849; in assay [2] (first compound 1.265 µM) it was 0.84; in assay [2] (first compound 4 µM) it was 0.772; in assay [3] (first compound 0.04 µM) it was 0.471; in assay [3] (first compound 0.1265 µM), 0.439. The relative viability in assay [3] (first compound 0.4 µM) was found to be 0.418; in assay [3] (first compound 1.265 µM), 0.384; in assay [3] (first compound 4 µM), 0.415; in assay [4] (first compound 0.25 µM), 0.691; in assay [4] (first compound 0.7906 µM), 0.59; in assay [4] (first compound 2.5 µM), 0.596. Also, the relative viability in assay [4] (first compound 7.906 µM) worked out at 0.651; in assay [4] (first compound 25 µM), 0.425.

On to SK-LU-1, for which the relative viability in assay [1] (first compound 0.04 µM) was determined as 1.09; in assay [1] (first compound 0.1265 µM), 1.03; in assay [1] (first compound 0.4 µM), 1.16; in assay [1] (first compound 4 µM), 1.13; in assay [2] (first compound 0.04 µM), 1.28; in assay [2] (first compound 0.1265 µM) it was 1.24. The relative viability in assay [2] (first compound 0.4 µM) stood at 1.32; in assay [2] (first compound 1.265 µM), 1; in assay [2] (first compound 4 µM), 1.06; in assay [3] (first compound 0.04 µM), 0.918; in assay [3] (first compound 0.1265 µM) it was 0.906; in assay [3] (first compound 0.4 µM), 0.772. The relative viability is 0.457 in assay [3] (first compound 1.265 µM); 0.372 in assay [3] (first compound 4 µM); 0.387 in assay [4] (first compound 0.25 µM); 0.35 in assay [4] (first compound 0.7906 µM); 0.333 in assay [4] (first compound 2.5 µM); 0.276 in assay [4] (first compound 7.906 µM). Further, in assay [4] (first compound 25 µM), the relative viability worked out at 0.228.

As to SW 1573, the relative viability in assay [1] (first compound 0.04 µM) was found to be 1.09; in assay [1] (first compound 0.1265 µM), 1.08; in assay [1] (first compound 0.4 µM) it was 0.937; in assay [1] (first compound 1.265 µM), 0.893; in assay [1] (first compound 4 µM) it was 0.892; in assay [2] (first compound 0.04 µM), 0.574. Besides, the relative viability in assay [2] (first compound 0.1265 µM) was 0.683; in assay [2] (first compound 0.4 µM) it was 0.862; in assay [2] (first compound 1.265 µM), 0.777; in assay [2] (first compound 4 µM), 0.866; in assay [3] (first compound 0.04 µM), 0.913; in assay [3] (first compound 0.1265 µM) it was 0.821. Besides, the relative viability worked out at 0.535 in assay [3] (first compound 0.4 µM); 0.32 in assay [3] (first compound 1.265 µM); 0.261 in assay [3] (first compound 4 µM); 0.616 in assay [4] (first compound 0.25 µM); 0.428 in assay [4] (first compound 0.7906 µM); 0.625 in assay [4] (first compound 2.5 µM). Besides, the relative viability came to 0.524 in assay [4] (first compound 7.906 µM) and 0.307 in assay [4] (first compound 25 µM).

Values taken from the supplement of paper PMC10307832.
